Assay results as given in patent US20260356860A1, “2-SUBSTITUTED 3,4A,5,7,8,8A-HEXAHYDRO-4H-THIOPYRANO[4,3-DJPYRIMIDIN-4-ONES FOR WOUND TREATMENT” (priority 2022, published 2026).

What was measured:
[1] = tested on: full thickness open excisional wounds; experiment: Full thickness open excisional wound healing study; format: in vivo, Yucatan Miniature Swine; conditions: day 3 to day 22
Method: A 21-day full thickness open excisional wound healing study was conducted on Yucatan™ Miniature Swine (Sinclair BioResources, Auxvasse, Missouri, USA) to evaluate the efficacy of healing and local tissue reaction of compounds of Formula (I). Compounds and controls were topically administered on full thickness open excisional wounds once every other day (total 11 doses).
The negative control for this study was saline (0.9%). The tes compositions for these studies are described as follows.
The test composition in the full thickness open excisional wound studies for compounds without GO-HA (no GO-HA added) was a mixture with an overall concentration of 0.25 to 0.27 mg/mL of the respective compound in serum formulation as follows: compound (10 mg), butylene glycol (1.80 mL), polysorbate 20 (1.80 mL), phosphatidyl choline (0.44 g), ethanol (1.80 mL), ultra pure water (30 mL), and hydroxypropyl cellulose (0.285 g).
The test composition in the full thickness open excisional wounds studies for compounds with GO-HA (Compound+GO-HA) was a mixture with an overall concentration of 1.0 mg/mL of the respective compound and 1.0 mg/mL of GO-HA in serum formulation as follows: compound (35 mg), butylene glycol (1.8 mL), polysorbate 20 (1.8 mL), phosphotidyl choline (0.44 g), ethanol (1.8 mL), GO-HA (35 mg), ultra pure water (30 mL), and hydroxypropyl cellulose (0.285 g). […]

[2] = tested on: Full-thickness, 3rd degree burn wounds; experiment: 3rd degree burn wound healing study (60-day); format: in vivo, Yucatan minipig; conditions: for burn wound healing rate versus saline control: about day 16 to day 30; for burn wound histology (H&E) versus saline and GO-HA: improved organized reticular collagen and rete ridge formation
Method: The test composition in the closed excisional wound and burn studies for compounds without GO-HA (no GO-HA added) was a mixture with an overall concentration of 0.20 to 0.25 mg/mL of the respective compound in serum formulation as follows: compound (4 mg), butylene glycol (0.80 mL), polysorbate 20 (0.40 mL), ultra pure water (18 mL), and hydroxypropyl cellulose (0.12 g).
The test composition in the closed excisional wound and burn studies for compounds with GO-HA (Compound+GO-HA) was a mixture with an overall concentration of 1.0 mg/mL of the respective compound and 0.5 mg/mL of GO-HA in serum formulation as follows: compound (18 mg), PEG 400 (0.8 mL), GO-HA (9 mg), ultra pure water (18 mL), and hydroxypropyl cellulose (0.12 g).
Full-thickness 60-day burn wound healing study. Full-thickness, 3rd degree burn wounds of 3×3 cm^2 size were created on the back of the Yucatan minipig (5 wounds on each side of the spine, 10 total per swine) by using a brass cylinder (circular cross-section, 3 cm diameter) that was preheated in an oven at 100° C. and applied to the dorsal skin with light pressure for 30 seconds. Debridement of the wounds occurred day 7 post-dose. Compounds were dosed topically three times a week (0.24 mL) for thirty days. At 30 day time-point, the wounds were photographed once a week and NO dosing of compounds conducted from day 31-60. On day 60 animals were sacrificed and tissue prepared for analysis.

8 mm ear punch wound = experiment: Rabbit ear punch: rate of ear closure; format: in vivo; conditions: after day 4; phospholipid spray
Method: (§1) Compounds of Formula (I) were tested and compared to saline control in elastic cartilage regeneration tests. Rabbit ears were punched through and through with an 8 mm punch. 4 holes were punched in each ear of the specimen (four positions L1, L2, L3, and L4 in the left ear and four positions R5, R6, R7, and R8 in right ear). Saline was applied via a spray on the control specimen, Compound 8 was applied via a phospholipid spray on another specimen, and Compound 18 was applied via a phospholipid spray on yet another specimen. The phospholipid spray contained compound (45 mg), butylene glycol (2 mL), polysorbate 20 (2 mL), phosphotidyl choline (0.5 g), ethanol (2 mL), and ultra pure water (40 mL).
FIG. 4 provides photographs of the wounds after treatment with saline, compound 8, or compound 18 on Days 0 and 23. Ear punch area related to wound closure was measured at 2- to 3-day intervals from day 0 to day 39.

elastic cartilage = experiment: Elastic cartilage regeneration in rabbit ear punch wounds (stained cross sections, day 45); format: in vivo; conditions: for average distance between opposing cartilage endplates: original 8 mm wound margin, saline 6 mm; for average cartilage growth upon closure of the wound: saline 2 mm; for average cartilage tissue regrowth: saline about 25%; for cartilage regeneration by histology: versus control
Method: as §1
At day 45, the tests were stopped and the tissue was processed. An embed cut was made across the center point of the healed wounds in each site (FIG. 7, top). A slide was used to obtain sectioned tissue sample for staining and imaging (FIG. 7, bottom).
After staining with either Safronin O or Trichrome Blue, the distance between the opposing cartilage endplates was measured. From the original 8 mm wound margin distance, the saline control averaged 6 mm of distance between opposing cartilage endplates (FIG. 8), or 2 mm of average cartilage growth upon closure of the wound (about 25% average cartilage tissue regrowth). Compounds of Formula (I) (Compound 8 and Compound 18) provided about 2-3 mm average distance between opposing cartilage endplates (FIG. 8), or […] of average cartilage growth upon closure of the wound (about 68-75% average cartilage tissue regrowth).
FIGS. 9-11 display the original 8 mm wound margin (top, two vertical gray lines) and in an inset (bottom left, curved gray line). FIGS. 9-11 show expanded views of the cartilage regeneration site where chondrocytes are newly formed within the wound margin. Comparing FIG. 10 (Compound 8) and FIG. 11 (Compound 18) to FIG. 9 (control), cartilage regeneration using compounds of Formula (I) was confirmed.

Row | SMILES | wound healing throughout the entire test [1] | burn wound healing rate versus saline control [2] | burn wound histology (H&E) versus saline and GO-HA [2] | rate of ear closure versus control (8 mm ear punch wound) | average distance between opposing cartilage endplates (elastic cartilage) | average cartilage growth upon closure of the wound (elastic cartilage) | average cartilage tissue regrowth (elastic cartilage) | cartilage regeneration by histology (elastic cartilage)
1 | O=c1[nH]c(-c2ccc(-c3ccc(Br)nc3)cc2)nc2c1CSCC2 [Compound 7, 2-(4-(6-bromopyridin-3-yl)phenyl)-3,5,7,8-tetrahydro-4H-thiopyrano [4,3-d]pyrimidin-4-one] | improved wound healing throughout the entire test | statistically significant improved burn wound healing rates | promoted regeneration of tissue (improved organized reticular collagen and rete ridge formation) and reduced scar formation |  |  |  |  | 
2 | CC(C)(OCCO)c1ccc(-c2nc3c(c(=O)[nH]2)CSCC3)cc1 [Compound 8, 2-(4-(2-(2-hydroxyethoxy)propan-2-yl)phenyl)-3,5,7,8-tetrahydro-4H-thiopyrano[4,3-d]pyrimidin-4-one] | improved wound healing throughout the entire test | statistically significant improved burn wound healing rates | promoted regeneration of tissue (improved organized reticular collagen and rete ridge formation) and reduced scar formation | improved the rate of ear closure over the control | 2-3 mm | 5.5-6 mm | 68-75% | newly formed chondrocytes are more numerous and larger than in the control
3 | COC(=O)NCCOC(C)(C)c1ccc(-c2nc3c(c(=O)[nH]2)CSCC3)cc1 [Compound 18, methyl (2-((2-(4-(4-oxo-3,5,7,8-tetrahydro-4H-thiopyrano[4,3-d]pyrimidin-2-yl)phenyl)propan-2-yl)oxy)ethyl)carbamate] |  |  |  | improved the rate of ear closure over the control | 2-3 mm | 5.5-6 mm | 68-75% | newly formed chondrocytes are more numerous and larger than in the control
